Results from patent US8084649B2, “Herbicides” (Syngenta Crop Protection, inc., priority 2007, dated 2011).

test system: Alopecurus myosuroides (ALOMY); test: Pre-emergence herbicidal activity, glasshouse pot test; assay type: in vivo; conditions: Alopecurus myosuroides, 480 h, rate 500 g/ha, evaluated after 20 days, read-out: Pre-emergence activity, ALOMY (100=total damage to plant; 0=no damage to plant)
Procedure: (§1) Monocotyledonous and dicotyledonous test plants were sown in sterilised standard soil in pots. After cultivation for one day (pre-emergence) or after 10 days cultivation (post-emergence) under controlled conditions in a glasshouse, the plants were sprayed with an aqueous spray solution derived from the formulation of the technical active ingredient in 0.6 ml acetone and 45 ml formulation solution containing 10.6% Emulsogen EL (Registry number 61791-12-6), 42.2% N-methylpyrrolidone, 42.2% dipropylene glycol monomethyl ether (Registry number 34590-94-8) and 0.2% X-77 (Registry number 11097-66-8). The test plants were then grown in a greenhouse under optimum conditions until, 14 or 15 days later for post-emergence and 20 days for pre-emergence, the test was evaluated (100=total damage to plant; 0=no damage to plant). Alopecurus myosuroides (ALOMY), Avena fatua (AVEFA), Lolium perenne (LOLPE), Setaria faberi (SETFA), Digitaria sanguinalis (DIGSA), Echinochloa crus-galli (ECHCG) Pre-Emergence Activity

In order of falling pest or weed control at 500 g/ha:
1. CCOC(=O)OC1=C(c2c(CC)cc(C)cc2CC)C(=O)CC2(CCOCC2)C1 [Compound P16]  100%
2. CCc1cc(C)cc(CC)c1C1=C(OS(=O)(=O)CC(F)(F)F)CC2(CCOCC2)CC1=O [Compound P27]  100%
3. Cc1cc(C)c(C2=C(O)CC(CC(C)SC(C)C)CC2=O)c(C)c1 (stereo not drawn) [Compound T39]  70%

test system: Echinochloa crus-galli (ECHCG); test: as above; assay type: in vivo; conditions: Echinochloa crus-galli, 480 h, rate 500 g/ha, evaluated after 20 days, read-out: Pre-emergence activity, ECHCG (100=total damage to plant; 0=no damage to plant)
Procedure: as §1

In order of falling pest or weed control at 500 g/ha:
1. CCOC(=O)OC1=C(c2c(CC)cc(C)cc2CC)C(=O)CC2(CCOCC2)C1 [Compound P16]  100%
2. CCc1cc(C)cc(CC)c1C1=C(OS(=O)(=O)CC(F)(F)F)CC2(CCOCC2)CC1=O [Compound P27]  100%
3. Cc1cc(C)c(C2=C(O)CC(CC(C)SC(C)C)CC2=O)c(C)c1 (stereo not drawn) [Compound T39]  60%

test system: Setaria faberi (SETFA); test: as above; assay type: in vivo; conditions: Setaria faberi, 480 h, rate 500 g/ha, evaluated after 20 days, read-out: Pre-emergence activity, SETFA (100=total damage to plant; 0=no damage to plant)
Procedure: as §1

In order of falling pest or weed control at 500 g/ha:
1. CCOC(=O)OC1=C(c2c(CC)cc(C)cc2CC)C(=O)CC2(CCOCC2)C1 [Compound P16]  100%
2. CCc1cc(C)cc(CC)c1C1=C(OS(=O)(=O)CC(F)(F)F)CC2(CCOCC2)CC1=O [Compound P27]  100%
3. Cc1cc(C)c(C2=C(O)CC(CC(C)SC(C)C)CC2=O)c(C)c1 (stereo not drawn) [Compound T39]  70%

test system: Digitaria sanguinalis (DIGSA); test: as above; assay type: in vivo; conditions: Digitaria sanguinalis, 480 h, rate 500 g/ha, evaluated after 20 days, read-out: Pre-emergence activity, DIGSA (100=total damage to plant; 0=no damage to plant)
Procedure: as §1

In order of falling pest or weed control at 500 g/ha:
1. CCOC(=O)OC1=C(c2c(CC)cc(C)cc2CC)C(=O)CC2(CCOCC2)C1 [Compound P16]  100%
2. CCc1cc(C)cc(CC)c1C1=C(OS(=O)(=O)CC(F)(F)F)CC2(CCOCC2)CC1=O [Compound P27]  100%
3. Cc1cc(C)c(C2=C(O)CC(CC(C)SC(C)C)CC2=O)c(C)c1 (stereo not drawn) [Compound T39]  90%

test system: Lolium perenne (LOLPE); test: as above; assay type: in vivo; conditions: Lolium perenne, 480 h, rate 500 g/ha, evaluated after 20 days, read-out: Pre-emergence activity, LOLPE (100=total damage to plant; 0=no damage to plant)
Procedure: as §1

In order of rising pest or weed control at 500 g/ha:
1. Cc1cc(C)c(C2=C(O)CC(CC(C)SC(C)C)CC2=O)c(C)c1 (stereo not drawn) [Compound T39]  80%
2. CCOC(=O)OC1=C(c2c(CC)cc(C)cc2CC)C(=O)CC2(CCOCC2)C1 [Compound P16]  100%
3. CCc1cc(C)cc(CC)c1C1=C(OS(=O)(=O)CC(F)(F)F)CC2(CCOCC2)CC1=O [Compound P27]  100%

test system: Avena fatua (AVEFA); test: as above; assay type: in vivo; conditions: Avena fatua, 480 h, rate 500 g/ha, evaluated after 20 days, read-out: Pre-emergence activity, AVEFA (100=total damage to plant; 0=no damage to plant)
Procedure: as §1

In order of falling pest or weed control at 500 g/ha:
1. CCOC(=O)OC1=C(c2c(CC)cc(C)cc2CC)C(=O)CC2(CCOCC2)C1 [Compound P16]  100%
2. CCc1cc(C)cc(CC)c1C1=C(OS(=O)(=O)CC(F)(F)F)CC2(CCOCC2)CC1=O [Compound P27]  100%
3. Cc1cc(C)c(C2=C(O)CC(CC(C)SC(C)C)CC2=O)c(C)c1 (stereo not drawn) [Compound T39]  70%

test system: Alopecurus myosuroides (ALOMY); test: Post-emergence herbicidal activity, glasshouse pot test; assay type: in vivo; conditions: Alopecurus myosuroides, rate 125 g/ha, evaluated after 14 or 15 days, read-out: Post-emergence activity, ALOMY (100=total damage to plant; 0=no damage to plant)
Procedure: as §1, with “Post-Emergence” for “Pre-Emergence”

In order of rising pest or weed control at 125 g/ha:
1. Cc1cc(C)c(C2=C(O)CC(CC(C)SC(C)C)CC2=O)c(C)c1 (stereo not drawn) [Compound T39]  10%
2. CCc1cc(C)cc(CC)c1C1=C(OS(=O)(=O)CC(F)(F)F)CC2(CCOCC2)CC1=O [Compound P27]  70%
3. CCOC(=O)OC1=C(c2c(CC)cc(C)cc2CC)C(=O)CC2(CCOCC2)C1 [Compound P16]  100%

test system: Echinochloa crus-galli (ECHCG); test: as above; assay type: in vivo; conditions: Echinochloa crus-galli, rate 125 g/ha, evaluated after 14 or 15 days, read-out: Post-emergence activity, ECHCG (100=total damage to plant; 0=no damage to plant)
Procedure: as §1, with “Post-Emergence” for “Pre-Emergence”

In order of falling pest or weed control at 125 g/ha:
1. CCOC(=O)OC1=C(c2c(CC)cc(C)cc2CC)C(=O)CC2(CCOCC2)C1 [Compound P16]  100%
2. CCc1cc(C)cc(CC)c1C1=C(OS(=O)(=O)CC(F)(F)F)CC2(CCOCC2)CC1=O [Compound P27]  70%
3. Cc1cc(C)c(C2=C(O)CC(CC(C)SC(C)C)CC2=O)c(C)c1 (stereo not drawn) [Compound T39]  20%

test system: Setaria faberi (SETFA); test: as above; assay type: in vivo; conditions: Setaria faberi, rate 125 g/ha, evaluated after 14 or 15 days, read-out: Post-emergence activity, SETFA (100=total damage to plant; 0=no damage to plant)
Procedure: as §1, with “Post-Emergence” for “Pre-Emergence”

In order of rising pest or weed control at 125 g/ha:
1. Cc1cc(C)c(C2=C(O)CC(CC(C)SC(C)C)CC2=O)c(C)c1 (stereo not drawn) [Compound T39]  10%
2. CCc1cc(C)cc(CC)c1C1=C(OS(=O)(=O)CC(F)(F)F)CC2(CCOCC2)CC1=O [Compound P27]  50%
3. CCOC(=O)OC1=C(c2c(CC)cc(C)cc2CC)C(=O)CC2(CCOCC2)C1 [Compound P16]  70%

test system: Digitaria sanguinalis (DIGSA); test: as above; assay type: in vivo; conditions: Digitaria sanguinalis, rate 125 g/ha, evaluated after 14 or 15 days, read-out: Post-emergence activity, DIGSA (100=total damage to plant; 0=no damage to plant)
Procedure: as §1, with “Post-Emergence” for “Pre-Emergence”

In order of falling pest or weed control at 125 g/ha:
1. CCOC(=O)OC1=C(c2c(CC)cc(C)cc2CC)C(=O)CC2(CCOCC2)C1 [Compound P16]  100%
2. CCc1cc(C)cc(CC)c1C1=C(OS(=O)(=O)CC(F)(F)F)CC2(CCOCC2)CC1=O [Compound P27]  70%
3. Cc1cc(C)c(C2=C(O)CC(CC(C)SC(C)C)CC2=O)c(C)c1 (stereo not drawn) [Compound T39]  30%

test system: Lolium perenne (LOLPE); test: as above; assay type: in vivo; conditions: Lolium perenne, rate 125 g/ha, evaluated after 14 or 15 days, read-out: Post-emergence activity, LOLPE (100=total damage to plant; 0=no damage to plant)
Procedure: as §1, with “Post-Emergence” for “Pre-Emergence”

In order of falling pest or weed control at 125 g/ha:
1. CCOC(=O)OC1=C(c2c(CC)cc(C)cc2CC)C(=O)CC2(CCOCC2)C1 [Compound P16]  100%
2. CCc1cc(C)cc(CC)c1C1=C(OS(=O)(=O)CC(F)(F)F)CC2(CCOCC2)CC1=O [Compound P27]  70%
3. Cc1cc(C)c(C2=C(O)CC(CC(C)SC(C)C)CC2=O)c(C)c1 (stereo not drawn) [Compound T39]  0%

test system: Avena fatua (AVEFA); test: as above; assay type: in vivo; conditions: Avena fatua, rate 125 g/ha, evaluated after 14 or 15 days, read-out: Post-emergence activity, AVEFA (100=total damage to plant; 0=no damage to plant)
Procedure: as §1, with “Post-Emergence” for “Pre-Emergence”

In order of falling pest or weed control at 125 g/ha:
1. CCOC(=O)OC1=C(c2c(CC)cc(C)cc2CC)C(=O)CC2(CCOCC2)C1 [Compound P16]  90%
2. CCc1cc(C)cc(CC)c1C1=C(OS(=O)(=O)CC(F)(F)F)CC2(CCOCC2)CC1=O [Compound P27]  50%
3. Cc1cc(C)c(C2=C(O)CC(CC(C)SC(C)C)CC2=O)c(C)c1 (stereo not drawn) [Compound T39]  0%
